Laboratory results: ChEMBL document CHEMBL5465560, “Selectivity Literature for EUbOPEN Chemogenomic Library” (2024)

What was measured:
[1] = biological target: Fibroblast growth factor receptor 4 (Homo sapiens, UniProt P22455); assay: Selectivity interaction (Kinase screening (Nanosyn)) EUB0000604a FGFR4
[2] = biological target: Serine/threonine-protein kinase SIK3 (Homo sapiens) (UniProt Q9Y2K2); assay: Selectivity interaction (ActivX KiNativ screen (kinase selectivity in THP-1 cell lysates)) EUB0000639a SIK3; type: subcellular; settings: lysate
[3] = biological target: Ribosomal protein S6 kinase beta-1 (Homo sapiens, UniProt P23443); assay: Selectivity interaction (ActivX KiNativ screen (kinase selectivity in THP-1 cell lysates)) EUB0000639a RPS6KB1; type: subcellular; settings: lysate, at 0.04 µM
Activated CDC42 kinase 1 = Activated CDC42 kinase 1 (Homo sapiens, UniProt Q07912); assay: Selectivity interaction (Kinase panel (Invitrogen)) EUB0000639a TNK2; settings: at 200 nM
[4] = biological target: Bromodomain-containing protein 2 (Homo sapiens) (UniProt P25440); assay: Selectivity interaction (Bromodomain panel (DSF asssay)) EUB0000270b BRD2
[5] = biological target: Rho-associated protein kinase 2 (Homo sapiens, UniProt O75116); assay: Selectivity interaction (Kinase panel (33PanQinase(R) Activity Assay)) EUB0000877a ROCK2
[6] = biological target: MAP kinase-interacting serine/threonine-protein kinase 2 (Homo sapiens, UniProt Q9HBH9)
[7] = biological target: Casein kinase II subunit alpha' (Homo sapiens) (UniProt P19784); assay: Selectivity interaction (Kinase panel (literature)) EUB0001199aCl CSNK2A2; settings: at 1 µM
[8] = biological target: RAC-beta serine/threonine-protein kinase (Homo sapiens) (UniProt P31751); assay: Selectivity interaction (Kinase panel (Z-LYTE Assay)) EUB0001632a AKT2; settings: at 10 µM
[9] = biological target: Leukotriene B4 receptor 1 (Homo sapiens) (UniProt Q15722); assay: Selectivity interaction (Eurofins CEREP Diversity Profile (receptors and ion channels)) EUB0000279b LTB4R; settings: at 10 µM
[10] = biological target: Ribosomal protein S6 kinase alpha-5 (Homo sapiens) (UniProt O75582); settings: at 10 µM
Misshapen-like kinase 1 = Misshapen-like kinase 1 (Homo sapiens, UniProt Q8N4C8); assay: Selectivity interaction (KinomeScan (DiscoverX)) EUB0000595a MINK1; settings: at 10 µM
[11] = biological target: Mitogen-activated protein kinase 7 (Homo sapiens) (UniProt Q13164); assay: Selectivity interaction (KinomeScan (DiscoverX)) EUB0000229b MAPK7; settings: at 10 µM
[12] = biological target: Phosphatidylinositol 4-phosphate 5-kinase type-1 alpha (Homo sapiens) (UniProt Q99755); assay: Selectivity interaction (KinomeScan (DiscoverX)) EUB0000045b PIP5K1A
[13] = biological target: Fibroblast growth factor receptor 2 (Homo sapiens) (UniProt P21802); assay: Selectivity interaction (KinomeScan (DiscoverX)) EUB0000655a FGFR2; settings: at 10 µM
[14] = biological target: T1, Serine/threonine-protein kinase tousled-like 1 (Homo sapiens) (UniProt Q9UKI8); assay: Selectivity interaction (ActivX KiNativ screen (ex vivo kinase selectivity in human PBMCs)) EUB0001619a TLK1; type: cell-based; settings: PBMC, at 1 µM
T1 sequence (whole entry): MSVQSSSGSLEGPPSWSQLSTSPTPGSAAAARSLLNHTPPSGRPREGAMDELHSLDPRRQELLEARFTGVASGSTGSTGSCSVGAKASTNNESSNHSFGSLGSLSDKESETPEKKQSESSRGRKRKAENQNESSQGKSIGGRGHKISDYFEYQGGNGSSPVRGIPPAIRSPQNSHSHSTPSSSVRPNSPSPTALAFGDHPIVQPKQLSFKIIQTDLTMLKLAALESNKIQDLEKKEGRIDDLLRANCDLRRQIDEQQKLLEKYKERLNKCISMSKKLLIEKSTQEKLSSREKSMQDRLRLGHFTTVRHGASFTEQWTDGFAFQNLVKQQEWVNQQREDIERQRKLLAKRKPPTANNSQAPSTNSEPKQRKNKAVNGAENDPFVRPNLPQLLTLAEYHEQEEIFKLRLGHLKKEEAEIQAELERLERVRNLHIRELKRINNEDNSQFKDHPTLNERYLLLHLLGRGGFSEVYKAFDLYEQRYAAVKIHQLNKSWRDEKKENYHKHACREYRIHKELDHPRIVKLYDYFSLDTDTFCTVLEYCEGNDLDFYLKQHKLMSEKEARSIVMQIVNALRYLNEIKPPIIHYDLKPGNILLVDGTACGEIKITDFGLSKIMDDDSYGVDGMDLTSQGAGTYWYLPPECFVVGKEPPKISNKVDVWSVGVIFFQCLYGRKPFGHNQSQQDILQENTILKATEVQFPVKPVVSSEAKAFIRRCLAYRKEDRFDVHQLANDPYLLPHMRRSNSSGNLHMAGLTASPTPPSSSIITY

[15] = biological target: Tyrosine-protein kinase Fgr (Homo sapiens) (UniProt P09769); assay: Selectivity interaction (KinomeScan (DiscoverX)) EUB0000607a FGR; settings: at 10 µM
[16] = biological target: T2, SNF-related serine/threonine-protein kinase (Homo sapiens) (UniProt Q9NRH2); assay: Selectivity interaction (KinomeScan (DiscoverX)) EUB0000607a SNRK; settings: at 10 µM
T2 sequence (whole entry): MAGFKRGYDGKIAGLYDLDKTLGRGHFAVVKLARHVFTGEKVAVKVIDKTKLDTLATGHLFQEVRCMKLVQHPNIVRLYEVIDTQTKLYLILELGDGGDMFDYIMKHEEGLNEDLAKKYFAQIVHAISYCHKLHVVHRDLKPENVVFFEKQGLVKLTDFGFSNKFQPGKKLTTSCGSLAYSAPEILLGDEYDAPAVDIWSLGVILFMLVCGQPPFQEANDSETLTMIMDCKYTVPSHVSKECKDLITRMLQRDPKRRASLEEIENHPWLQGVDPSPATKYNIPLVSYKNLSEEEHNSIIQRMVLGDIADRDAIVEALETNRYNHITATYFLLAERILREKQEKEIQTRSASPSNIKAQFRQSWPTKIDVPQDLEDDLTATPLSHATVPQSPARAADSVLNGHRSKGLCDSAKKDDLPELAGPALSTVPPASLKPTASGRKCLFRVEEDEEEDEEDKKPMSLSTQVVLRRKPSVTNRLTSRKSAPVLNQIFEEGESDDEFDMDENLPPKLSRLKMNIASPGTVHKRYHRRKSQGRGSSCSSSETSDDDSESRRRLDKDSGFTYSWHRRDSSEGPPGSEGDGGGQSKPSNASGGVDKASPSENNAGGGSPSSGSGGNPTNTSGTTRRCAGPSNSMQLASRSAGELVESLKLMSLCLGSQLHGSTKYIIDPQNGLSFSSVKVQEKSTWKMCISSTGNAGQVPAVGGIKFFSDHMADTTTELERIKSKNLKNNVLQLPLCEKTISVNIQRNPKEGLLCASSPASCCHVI

Chain of Serine/threonine-protein kinase SIK3 (Homo sapiens) (Q9Y2K2 whole entry, looked up): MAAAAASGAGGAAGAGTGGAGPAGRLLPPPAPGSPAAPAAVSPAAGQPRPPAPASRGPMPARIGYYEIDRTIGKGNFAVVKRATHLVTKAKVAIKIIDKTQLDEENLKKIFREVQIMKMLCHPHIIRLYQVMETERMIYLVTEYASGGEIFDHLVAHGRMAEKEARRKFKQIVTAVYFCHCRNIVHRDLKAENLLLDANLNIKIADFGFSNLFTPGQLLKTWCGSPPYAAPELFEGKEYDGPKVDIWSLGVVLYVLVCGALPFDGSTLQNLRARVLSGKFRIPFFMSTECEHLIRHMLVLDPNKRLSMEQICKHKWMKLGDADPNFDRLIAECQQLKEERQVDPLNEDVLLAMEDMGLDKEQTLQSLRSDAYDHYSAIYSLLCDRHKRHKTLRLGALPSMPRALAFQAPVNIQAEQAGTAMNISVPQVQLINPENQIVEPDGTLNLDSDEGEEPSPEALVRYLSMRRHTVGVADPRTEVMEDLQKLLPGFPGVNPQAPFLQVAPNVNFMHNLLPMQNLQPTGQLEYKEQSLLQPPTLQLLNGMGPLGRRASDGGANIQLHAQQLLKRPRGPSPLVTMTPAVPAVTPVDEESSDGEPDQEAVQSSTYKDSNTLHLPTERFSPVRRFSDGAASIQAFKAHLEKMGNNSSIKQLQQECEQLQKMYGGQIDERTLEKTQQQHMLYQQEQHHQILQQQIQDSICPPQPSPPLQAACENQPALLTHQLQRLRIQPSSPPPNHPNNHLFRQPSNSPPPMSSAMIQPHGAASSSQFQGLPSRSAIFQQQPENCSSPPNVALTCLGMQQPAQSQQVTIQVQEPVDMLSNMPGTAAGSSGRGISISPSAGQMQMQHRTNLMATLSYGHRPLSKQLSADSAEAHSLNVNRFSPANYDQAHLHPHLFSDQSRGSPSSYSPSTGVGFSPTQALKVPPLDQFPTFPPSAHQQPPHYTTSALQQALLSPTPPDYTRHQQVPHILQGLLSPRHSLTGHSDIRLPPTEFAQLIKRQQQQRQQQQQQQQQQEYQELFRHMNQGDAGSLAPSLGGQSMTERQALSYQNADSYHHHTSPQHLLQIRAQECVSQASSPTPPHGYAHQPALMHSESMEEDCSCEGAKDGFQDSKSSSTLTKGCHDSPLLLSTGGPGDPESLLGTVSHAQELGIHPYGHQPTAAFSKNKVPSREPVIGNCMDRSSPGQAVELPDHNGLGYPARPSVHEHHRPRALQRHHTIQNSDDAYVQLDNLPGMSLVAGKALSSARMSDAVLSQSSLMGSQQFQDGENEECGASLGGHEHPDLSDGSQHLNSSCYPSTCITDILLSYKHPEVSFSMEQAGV
Chain of Phosphatidylinositol 4-phosphate 5-kinase type-1 alpha (Homo sapiens) (Q99755 whole entry): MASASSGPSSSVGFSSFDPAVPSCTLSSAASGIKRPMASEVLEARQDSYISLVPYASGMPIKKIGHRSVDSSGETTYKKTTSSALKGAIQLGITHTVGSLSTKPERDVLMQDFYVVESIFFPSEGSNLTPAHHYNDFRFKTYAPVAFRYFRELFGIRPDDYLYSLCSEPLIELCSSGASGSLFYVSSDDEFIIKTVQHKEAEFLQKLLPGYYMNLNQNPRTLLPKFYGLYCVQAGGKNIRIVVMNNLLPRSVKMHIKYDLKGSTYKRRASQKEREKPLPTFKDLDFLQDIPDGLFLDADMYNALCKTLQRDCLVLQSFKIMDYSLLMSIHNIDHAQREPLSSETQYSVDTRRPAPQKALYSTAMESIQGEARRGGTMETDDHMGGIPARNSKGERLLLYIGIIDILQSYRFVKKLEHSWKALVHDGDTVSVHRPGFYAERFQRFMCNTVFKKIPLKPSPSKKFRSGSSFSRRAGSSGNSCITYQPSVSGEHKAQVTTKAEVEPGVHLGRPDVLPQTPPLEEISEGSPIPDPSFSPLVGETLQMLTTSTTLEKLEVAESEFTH
Chain of Tyrosine-protein kinase Fgr (Homo sapiens) (P09769 2-529 limits assumed): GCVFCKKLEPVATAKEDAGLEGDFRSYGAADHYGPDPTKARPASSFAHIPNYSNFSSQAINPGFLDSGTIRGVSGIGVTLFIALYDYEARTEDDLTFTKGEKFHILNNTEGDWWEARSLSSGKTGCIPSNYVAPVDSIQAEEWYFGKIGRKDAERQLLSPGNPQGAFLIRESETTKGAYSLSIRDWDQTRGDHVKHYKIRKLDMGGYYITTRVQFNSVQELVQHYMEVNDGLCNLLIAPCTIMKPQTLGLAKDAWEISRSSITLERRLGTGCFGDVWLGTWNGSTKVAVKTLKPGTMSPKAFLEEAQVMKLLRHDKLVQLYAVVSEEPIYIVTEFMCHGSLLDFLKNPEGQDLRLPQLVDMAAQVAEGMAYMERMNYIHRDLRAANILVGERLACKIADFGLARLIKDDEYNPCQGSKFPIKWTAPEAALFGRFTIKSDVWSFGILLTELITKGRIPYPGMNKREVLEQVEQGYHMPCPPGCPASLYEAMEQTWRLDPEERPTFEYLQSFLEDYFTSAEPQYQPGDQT
Chain of Fibroblast growth factor receptor 2 (Homo sapiens) (P21802 22-821 limits assumed): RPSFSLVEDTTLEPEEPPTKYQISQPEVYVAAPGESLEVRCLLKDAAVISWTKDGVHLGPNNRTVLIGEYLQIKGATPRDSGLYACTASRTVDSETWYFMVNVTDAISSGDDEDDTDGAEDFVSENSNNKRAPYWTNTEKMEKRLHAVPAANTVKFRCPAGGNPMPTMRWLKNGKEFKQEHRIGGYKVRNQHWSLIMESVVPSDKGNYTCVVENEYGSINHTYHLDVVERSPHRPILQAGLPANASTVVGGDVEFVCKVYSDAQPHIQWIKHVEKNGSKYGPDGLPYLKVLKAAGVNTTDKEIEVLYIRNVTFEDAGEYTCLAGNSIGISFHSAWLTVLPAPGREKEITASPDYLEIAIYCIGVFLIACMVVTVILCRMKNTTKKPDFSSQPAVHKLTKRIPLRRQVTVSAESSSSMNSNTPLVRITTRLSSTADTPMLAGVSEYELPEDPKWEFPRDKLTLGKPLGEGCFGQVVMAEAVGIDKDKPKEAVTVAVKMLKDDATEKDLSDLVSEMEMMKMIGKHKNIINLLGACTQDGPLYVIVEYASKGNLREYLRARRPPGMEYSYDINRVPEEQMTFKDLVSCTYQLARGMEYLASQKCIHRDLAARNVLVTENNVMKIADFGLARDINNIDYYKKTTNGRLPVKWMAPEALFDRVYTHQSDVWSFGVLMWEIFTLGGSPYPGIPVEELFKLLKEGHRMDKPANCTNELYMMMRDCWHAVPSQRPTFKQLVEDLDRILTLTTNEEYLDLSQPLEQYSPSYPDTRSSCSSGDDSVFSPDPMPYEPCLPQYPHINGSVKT
Chain of Fibroblast growth factor receptor 4 (P22455 22-802 limits assumed): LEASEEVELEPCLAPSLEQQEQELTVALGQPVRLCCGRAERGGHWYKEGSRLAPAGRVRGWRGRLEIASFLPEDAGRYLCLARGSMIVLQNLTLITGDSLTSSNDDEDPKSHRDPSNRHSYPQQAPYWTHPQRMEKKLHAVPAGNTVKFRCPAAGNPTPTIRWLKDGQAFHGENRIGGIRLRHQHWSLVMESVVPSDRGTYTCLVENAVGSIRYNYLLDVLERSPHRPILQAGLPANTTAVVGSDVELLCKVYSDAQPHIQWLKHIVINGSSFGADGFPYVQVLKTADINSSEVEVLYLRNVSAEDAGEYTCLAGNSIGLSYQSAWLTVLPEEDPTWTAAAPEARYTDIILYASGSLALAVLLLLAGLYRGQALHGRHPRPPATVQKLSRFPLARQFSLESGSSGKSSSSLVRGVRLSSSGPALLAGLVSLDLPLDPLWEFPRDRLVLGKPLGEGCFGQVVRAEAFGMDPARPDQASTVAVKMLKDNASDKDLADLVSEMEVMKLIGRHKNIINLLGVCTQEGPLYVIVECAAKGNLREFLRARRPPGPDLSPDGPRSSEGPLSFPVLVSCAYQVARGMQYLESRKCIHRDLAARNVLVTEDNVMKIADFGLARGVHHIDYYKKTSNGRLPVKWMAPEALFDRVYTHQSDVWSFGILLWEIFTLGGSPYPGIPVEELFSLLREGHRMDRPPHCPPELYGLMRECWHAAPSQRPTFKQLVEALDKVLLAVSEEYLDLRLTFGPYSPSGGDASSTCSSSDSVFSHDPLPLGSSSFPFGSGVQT
Chain of Bromodomain-containing protein 2 (Homo sapiens) (P25440 whole entry, looked up): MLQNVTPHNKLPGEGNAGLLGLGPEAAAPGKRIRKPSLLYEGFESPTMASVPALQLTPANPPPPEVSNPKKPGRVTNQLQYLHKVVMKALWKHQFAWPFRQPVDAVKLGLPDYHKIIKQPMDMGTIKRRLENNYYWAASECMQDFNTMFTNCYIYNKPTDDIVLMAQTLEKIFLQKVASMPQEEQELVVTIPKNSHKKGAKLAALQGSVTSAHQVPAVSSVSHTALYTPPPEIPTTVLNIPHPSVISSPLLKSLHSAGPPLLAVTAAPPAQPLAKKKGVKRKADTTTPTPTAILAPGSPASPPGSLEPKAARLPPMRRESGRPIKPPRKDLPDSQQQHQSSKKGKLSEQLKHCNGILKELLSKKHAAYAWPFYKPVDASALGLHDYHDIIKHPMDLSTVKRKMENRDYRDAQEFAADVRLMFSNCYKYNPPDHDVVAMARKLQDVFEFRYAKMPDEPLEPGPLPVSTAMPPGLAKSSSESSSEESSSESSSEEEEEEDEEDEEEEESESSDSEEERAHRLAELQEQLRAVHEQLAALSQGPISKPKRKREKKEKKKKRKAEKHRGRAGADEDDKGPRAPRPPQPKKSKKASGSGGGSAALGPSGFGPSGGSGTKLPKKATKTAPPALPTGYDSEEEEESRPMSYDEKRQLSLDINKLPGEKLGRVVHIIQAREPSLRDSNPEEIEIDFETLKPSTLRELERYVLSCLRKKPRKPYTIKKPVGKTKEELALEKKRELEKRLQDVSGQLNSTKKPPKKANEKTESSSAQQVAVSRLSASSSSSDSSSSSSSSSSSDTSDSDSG

Q: How did the % of inhibition [1] turn out when `Cc1cnc(Nc2ccc(F)cc2Cl)nc1-c1c[nH]c(C(=O)N[C@H](CO)c2cccc(Cl)c2)c1` was run?
A: 0.3%

Q: What does the source list for `CC[C@@H]1[C@H](F)C(=O)N[C@@H]1COc1nccc2cc(C(N)=O)c(OC)cc12` [ZIMLOVISERTIB]?
A: % of inhibition ([2]; at 0.01 µM): 5.4%; % of inhibition ([2]; at 0.04 µM): 3.4%; % of inhibition ([2]; at 0.2 µM): 15.7%; % of inhibition ([2]; at 1 µM): -1.4%; % of inhibition ([2]; at 5 µM): -7.8%; % of inhibition [3]: 9.9%; % of inhibition (Activated CDC42 kinase 1): -1.67%

Q: Which dTM [4] does the source give for `Cc1cc(CN)cc(C)c1-c1ncn(C)c1-c1cncn1C` here?
A: -1.94 K

Q: Which IC50 [5] does the source give for `CCC(=O)N1CC[C@H](Nc2ncnc3c2CN(c2cnc(OC)c(C(F)(F)F)c2)CC3)C1` [LENIOLISIB] here?
A: > 10 µM

Q: How did the IC50 [6] turn out when `CCc1cccc(CC)c1NC(=O)c1nn(C)c2c1CCc1cnc(Nc3ccc(C(=O)NC4CCN(C)CC4)cc3OC(F)(F)F)nc1-2` was run?
A: > 10 µM

Q: How did the % of inhibition [7] turn out when `CN1Cc2nccc(-c3cn(C)nc3-c3ccc(F)cc3)c2C1=O` was run?
A: 2%

Q: `Cn1cc(-n2cnc3c(NCc4nc5cc(Cl)c(Cl)cc5[nH]4)nc(N4CCOCC4)nc32)cn1` was tested. Which % of control [8] did it give?
A: -2.38%

Q: `CC(=O)c1cc(-c2ccccc2OCC2CC2)c2ncccn12` was tested. Which % of control [9] did it give?
A: 96%

Q: `CCN(CC)CCCCNc1ncc2cc(-c3cc(OC)cc(OC)c3)c(NC(=O)NC(C)(C)C)nc2n1` was tested. Which % of control [10] did it give?
A: 100%

Q: With `COCC(=O)NC/C=C/c1ccc2ncnc(Nc3ccc(Oc4ccc(C)nc4)c(C)c3)c2c1` [CP-724714] as the molecule, how does the % of control (Misshapen-like kinase 1) read?
A: 77%

Q: For `COc1cc(N(C)c2ccnc3ccc(C(F)(F)F)cc23)cc(OC)c1OC`, which % binding [11] is on record?
A: 87%

Q: `C=CC(=O)Nc1cc(-n2c(=O)ccc3cnc4ccc(-c5ccc(NS(C)(=O)=O)cc5)cc4c32)ccc1C` was tested. Which % of control ([12]; at 1 µM) did it give?
A: 100%

Q: And the % of control ([12]; at 10 µM)?
A: 54%

Q: Which % of control [13] does the source give for `CN(C)CCOc1ccc(-c2nc(-c3ccncc3)c(-c3ccc4c(c3)CC/C4=N\O)[nH]2)cc1` here?
A: 100%

Q: `N#Cc1cccc(-c2c[nH]c3ncnc(N4CCOCC4)c23)c1` was tested. Which % of inhibition [14] did it give?
A: -4%

Q: Which % of control [15] does the source give for `CNC(=O)Nc1ccc(-c2nc(N3CC4CCC(C3)O4)c3cnn(C4CCC5(CC4)OCCO5)c3n2)cc1` here?
A: 100%

Q: And the % of control [16]?
A: 100%
